Laboratory results: US20260191803A1, “SYSTEM AND METHOD FOR THE TREATMENT OF TELOGEN EFFLUVIUM AND CHEMOTHERAPY INDUCED ALOPECIA” (Follea International, priority 2025, published 2026)

Test system: hair shedding
Test: Example 5: hair shedding, hairs removed with brush after 10% phenylephrine or placebo
Assay type: in vivo, human
Conditions: average of 15 patients; versus placebo
Source text: Patients: Fifteen female subjects, ages 18-40, were included in the study. Subjects were recruited based on telogen effluvium diagnosis. Subjects with uncontrolled hypertension, that were pregnant or breastfeeding, had been diagnosed with pattern hair loss or with other hair loss in conjunction with female pattern hair loss were excluded from the study.
Hair Shedding: To measure hair shedding, a 4-day protocol was designed. On the first day patients were instructed to wash their hair and use styling products and procedures as they normally would. On the second day, patients were instructed not to wash their hair and to apply 0.5 mL of a placebo solution, containing a vehicle only, on the frontal area of the scalp in an 8×10 cm2 target area. Patients were instructed to wait 45 minutes, after which, they brushed their hair 20 times from the front of the scalp to the bottom of head using a new brush. After the procedure, the brushes were sealed in a plastic bag. On day three, patients were instructed to wash their hair and use styling products and procedures as they normally would. […] After each clinical procedure, the investigator counted the hairs collected on each brush. A new brush was used for each procedure.

## CNC[C@H](O)c1cccc(O)c1 [phenylephrine]
  Average reduction in hair loss: approximately 42%
